≈ marks a conversion by molar mass, not a printed value. Where “and” joins values, the source holds several entries; their conditions need not be identical. Identical values can stand only once. Like-named read-outs stand apart in the source and are kept apart here. Non-standard residues stand in square brackets, D forms with d. Residues, ends and D or L forms follow the SMILES beside them. *: point of attachment. Orn = NCCC[C@H](N)C(=O)O; Ac5c = NC1(C(=O)O)CCCC1; Aib = CC(C)(N)C(=O)O; Butyryl = CCCC(=O)*
Experiments:
[1] = target: T1, purified human platelet TSP-1 (activation of recombinant latent TGF-β1) (Homo sapiens, UniProt P07996); assay: ELISA-based screening assay: TSP-1 activation of recombinant latent TGF-β1; format: biochemical; details: for % Inhibition at 50 pM: Table 2, 5e-05 µM
T1 construct: purified human platelet TSP-1 was incubated with compounds; from tissue; host or cells: human platelets
T1 sequence (P07996 19-1170): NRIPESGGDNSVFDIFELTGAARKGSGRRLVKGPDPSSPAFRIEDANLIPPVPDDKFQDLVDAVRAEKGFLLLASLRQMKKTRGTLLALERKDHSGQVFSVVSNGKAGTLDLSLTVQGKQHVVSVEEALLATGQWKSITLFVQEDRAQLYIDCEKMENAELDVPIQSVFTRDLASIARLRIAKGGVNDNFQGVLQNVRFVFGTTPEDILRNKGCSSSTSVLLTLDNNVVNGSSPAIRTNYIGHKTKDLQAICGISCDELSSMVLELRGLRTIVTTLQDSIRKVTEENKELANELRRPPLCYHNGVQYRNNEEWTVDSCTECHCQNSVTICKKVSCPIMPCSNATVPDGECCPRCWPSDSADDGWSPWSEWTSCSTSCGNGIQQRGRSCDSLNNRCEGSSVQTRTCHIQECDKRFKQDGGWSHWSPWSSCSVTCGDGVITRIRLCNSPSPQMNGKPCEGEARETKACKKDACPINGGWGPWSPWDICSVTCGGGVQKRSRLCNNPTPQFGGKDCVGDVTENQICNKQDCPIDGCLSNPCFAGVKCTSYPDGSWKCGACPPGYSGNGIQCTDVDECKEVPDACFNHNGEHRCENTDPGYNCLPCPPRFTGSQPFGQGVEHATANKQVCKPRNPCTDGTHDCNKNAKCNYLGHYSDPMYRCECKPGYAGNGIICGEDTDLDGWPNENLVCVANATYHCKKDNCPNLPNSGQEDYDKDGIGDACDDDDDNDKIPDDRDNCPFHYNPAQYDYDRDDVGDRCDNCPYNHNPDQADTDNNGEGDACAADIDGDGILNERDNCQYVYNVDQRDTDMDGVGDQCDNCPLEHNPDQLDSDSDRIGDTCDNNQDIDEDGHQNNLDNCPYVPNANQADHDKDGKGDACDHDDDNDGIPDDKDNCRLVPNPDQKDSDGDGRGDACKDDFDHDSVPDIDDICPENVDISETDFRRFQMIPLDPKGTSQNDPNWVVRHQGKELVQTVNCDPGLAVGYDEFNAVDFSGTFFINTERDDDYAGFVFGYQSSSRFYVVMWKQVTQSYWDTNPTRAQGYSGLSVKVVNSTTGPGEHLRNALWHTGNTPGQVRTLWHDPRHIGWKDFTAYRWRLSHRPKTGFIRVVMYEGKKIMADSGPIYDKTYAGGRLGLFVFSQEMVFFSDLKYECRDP
Experimental: For initial screening, an ELISA-based screening assay was used in which purified human platelet TSP-1 was incubated with compounds and then incubated with recombinant latent TGF-β1 (purchased from R&D Systems). Activity is measured in a commercially available ELISA which detects only active TGF-β (R &D Systems). Activity in the presence of compounds is compared to activity in TSP-1+latent TGF-β samples without inhibitory compounds (Lu et al. (2016) Am J Pathol 186:678-690).

[2] = test system: TSP-1 activation of latent TGF-β; assay: cell-based assay of TSP1 activation of latent TGF-β (Table 3; Secondary Assay of Table 1); parameters: species or system human
Experimental: To specifically assess activity of compounds in liver cell specific assays, two different assays were used. In the first, human hepatic stellate cells were incubated overnight in low serum media to condition the media with secreted latent TGF-β. Purified TSP1 either preincubated with compounds or not will be added to cultures and then conditioned media harvested to assess TGF-β biological activity using the R&D Systems ELISA as above. Hepatic stellate cells will be purchased from commercial sources. Although hepatic stellate cells are the primary drivers of liver fibrosis, conditions which drive liver fibrosis can induce hepatocyte TSP-1 expression which can then have paracrine effects on controlling TGF-β activation in hepatic stellate cells. Furthermore, TGF-β can negatively impact hepatocyte regeneration following injury. Therefore, the ability of compounds to blockTSP-1 activation of latent TGF-β will also be assessed in cultured primary human hepatocytes following the protocol described for the hepatic stellate cells. Similar approaches have successfully been used to screen compounds which inhibit human myeloma cell derived latent TGF-β activation by TSP-1 (Lu et al. (2016) Am J Pathol 186:678-690).

MSCs = assay: Osteoblast differentiation by MSCs under osteogenic conditions; format: cell-based; details: osteogenic media, 20 days; TGF-β 5 ng/mL, TSP1 10 nM, LSKL 25 μM
Experimental: Referring to FIG. 1A, MSCs were grown to confluence in basal (control) media. Cells were treated with control growth media, osteogenic media, or osteogenic media with TGF-β (5 ng/mL) or stripped TSP1 (10 nM), TSP1+LSKL (SEQ ID NO:1) (25 μM), TSP1+SLLK (SEQ ID NO:2) (25 μM control peptide), or TSP1+anti-TGF-β (5 μg/mL). Cultures were fed daily for 20 days. Alkaline phosphatase staining is representative of triplicate wells.
Referring to FIG. 1B, cells were treated every 2 days for 20 days with MSC growth media (control) or osteogenic media with TGF-β (5 ng/mL) or TSP1 (10 nM) daily treatment with 25 μM LSKL (SEQ ID NO:1) or SLLK (SEQ ID NO:2) peptides. RNA isolated from cells was used for RT-PCR analysis of Runx2 expression. Samples were run in duplicate and each experimental treatment in triplicate.

[3] = target: recombinant latent TGF-β1 (purchased from R&D Systems) (UniProt P01137); assay: cell-based or functional assay
recombinant latent TGF-β1 (purchased from R&D Systems), sequence (P01137 30-390 limits assumed): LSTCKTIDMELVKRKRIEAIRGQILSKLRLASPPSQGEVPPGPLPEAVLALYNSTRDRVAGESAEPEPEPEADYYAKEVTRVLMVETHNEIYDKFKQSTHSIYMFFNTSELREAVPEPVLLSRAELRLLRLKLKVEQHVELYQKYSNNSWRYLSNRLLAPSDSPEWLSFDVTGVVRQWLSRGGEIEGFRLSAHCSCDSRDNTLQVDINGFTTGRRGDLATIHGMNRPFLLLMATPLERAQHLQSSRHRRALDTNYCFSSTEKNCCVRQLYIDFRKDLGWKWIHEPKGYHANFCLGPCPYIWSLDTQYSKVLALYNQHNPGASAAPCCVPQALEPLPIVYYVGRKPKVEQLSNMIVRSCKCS

CAG MM cells = assay: TGF-β activity in CAG MM cells (phospho-Smad 2 immunoblot); format: cell-based, human; details: 30 nM TSP1, 6 hrs
Experimental: Referring to FIG. 4A, CAG MM cells were incubated with 30 nM TSP1 for 6 hrs LSKL (SEQ ID NO:1) or SLLK (SEQ ID NO:2). Cell lysates were immunoblotted for phosphor-Smad 2. Blots were stripped and reprobed for total Smad 2/3 and GAPDH. Results are normalized to GAPDH (untreated controls=1). LSKL (SEQ ID NO:1) reduces TSP1 induced treatment or luciferase activity in cells treated with active TGF-β (not shown).

[4] = cited from earlier work
CAG-heparanase MM cells = assay: PAI-1 promoter luciferase reporter assay of conditioned media of CAG-heparanase MM cells treated with TSP1; format: cell-based, human; details: 67 nM TSP1, conditioned media
Experimental: Referring to FIG. 4B, CAG-heparanase MM cells were treated with 67 nM TSP1 and conditioned media were assessed for TGF-β activity using PAI-1 promoter luciferase reporter assay. There is ˜[…] TGF-β in the added TSP1 and LSKL (SEQ ID NO:1) blocks 80% of the CAG-heparanase MM cell generated TGF-β activity.

CAG human myeloma cells = assay: SCID-tibia MM model; format: in vivo, SCID mice
Experimental: Referring to FIG. 2A and FIG. 2B, CAG human myeloma cells were injected into the intratibial marrow space of SCID mice. After 2 weeks, tumors were imaged by bioluminescence and serum 1 g kappa levels measured. Mice were randomized to equalize 1 g kappa levels. Osmotic pumps were implanted subcutaneously to deliver saline or LSKL peptide (SEQ ID NO:1) (30 mg/kg/day) (n=10/group). Tumors were imaged and serum 1 g kappa levels measured at 2 and 4 weeks of treatment. Data are means SEM. Bioluminescence; *p=0.019 ANOVA, serum kappa; p=0.037, t-test.
Referring to FIG. 3A-C, at 4 weeks of treatment, tibiae from mice injected with CAG MM cells were fixed and stained with antibody to phosphor-Smad 2. Left panels are from 2 different saline treated mice and the right panels are from LSKL (SEQ ID NO:1)-treated mice. Pixels of brown staining were quantified in 4 fields per animal. 5-6 animals per group were analyzed. Data are the percent area exceeding the threshold for positive staining (FIG. 3A). […] P=0.004.

[5] = 30 mg/kg i.p., 3 times weekly, 15 weeks; cited from earlier work
Log D = format: physicochemical
Solubility = format: physicochemical
[6] = Rat liver microsomal stability; format: in vitro ADME; details: rat liver microsomes; read-out: Rat Liver Microsomal Stability t1/2
[7] = Pharmacokinetics (% F, T1/2, Tmax); details: in vivo
[8] = Human liver microsomal stability; format: in vitro ADME; details: human liver microsomes; read-out: Human Liver Microsomal Stability t1/2
[9] = target: TSP1 (activation of recombinant latent TGF-β1) (Homo sapiens, UniProt P07996); assay: Latent TGF-β activation by TSP1 in vitro (Quantikine ELISA for TGF-β1); format: biochemical; details: TSP1 155 nM
TSP1 (activation of recombinant latent TGF-β1), sequence (P07996 19-1170): as the sequence (P07996 19-1170) above
Experimental: Previous studies have illustrated the ability of tripeptide analogs such as compound no. 93 to block latent TGF-β activation by TSP1 in vitro (see FIG. 5 and FIG. 6). Briefly, TSP1 (155 nM, 20 μg/ml) was incubated for 10 min at 37° C. with 93, LSKL (SEQ ID NO:1), or control SLLK (SEQ ID NO:2) peptide. The mixture was then incubated with […] recombinant latent TGF-β1 for 20 min at 37° C. TGF-β1 activity was measured using an R&D systems Quantikine ELISA for TGF-β1.

[10] = ELISA-based assay, Table 2, read-out: % Inhibition at 50 pM
[11] = Conc. of compound 1 pM (last column: 30 nM)
[12] = Conc. of compound 50 pM (last column: 300 nM)
[13] = Conc. of compound 100 pM (last column: 3 μM)

## CC(=O)N[C@@H](CCCN)C(=O)NCC(N)=O [Compound 82, (S)-2-acetamido-5-amino-N-(2-amino-2-oxoethyl)pentanamide] (Ac-[Orn]-Gly-NH2)
[1]; [10]
  inhibition at 50 pM: 100%
[2]; [11]
  % Inhibition: 17%
  Conc. of Active TGF-β (pM): 4.2 pM
[2]; [12]
  % Inhibition: 80%
  Conc. of Active TGF-β (pM): 0.79 pM
[2]; [13]
  % Inhibition: 100%
  Conc. of Active TGF-β (pM): 0 pM

## TGF-β
MSCs
  osteoblast differentiation by MSCs (alkaline phosphatase staining, Runx2 expression): Decrease Osteoblast Differentiation

## Thrombospondin 1 (TSP1), purified human platelet TSP-1 (from UniProt P07996 19-1170)
[3]
  Conc. of Active TGF-β (pM), ELISA which detects only active TGF-β: 4.9 pM

## CC(C)C[C@H](NC(=O)[C@H](CCCN)NC(=O)C1CCCC1)C(N)=O [Compound 37, N—((S)-5-amino-1-(((S)-1-amino-4-methyl-1-oxopentan-2-yl)amino)-1-oxopentan-2-yl)cyclopentanecarboxamide]
[1]; [10]
  inhibition at 50 pM: 30%

## CC(=O)N[C@@H](CCCN)C(=O)Nc1cc(C)c[nH]c1=O [Compound 30, (S)-2-acetamido-5-amino-N-(5-methyl-2-oxo-1,2-dihydropyridin-3-yl)pentanamide]
[1]; [10]
  inhibition at 50 pM: 50%

## LSKL
MSCs
  osteoblast differentiation by MSCs (alkaline phosphatase staining, Runx2 expression): Increases Osteoblast Differentiation
CAG MM cells
  TGF-β activity in CAG MM cells (phospho-Smad 2): Reduces TGF-B Activity
[4]
  plasma stability half-life: 2.1 min
CAG-heparanase MM cells
  block of CAG-heparanase MM cell generated TGF-β activity: 80%
CAG human myeloma cells; 30 mg/kg/day by subcutaneous osmotic pump, 2 and 4 weeks of treatment
  MM tumor burden (bioluminescence, serum Ig kappa): Reduces Mm Tumor Burden
CAG human myeloma cells; 4 weeks of treatment, tibiae
  phospho-Smad 2 staining in the bone marrow: Reduces Phospho-Smad 2
[5]
  necropsy findings after treatment: no inflammation, no tumors in all major organs, and no impairment of wound healing

## CC(=O)N[C@@H](CCCN)C(=O)NC(C)(C)C(N)=O [Compound 8, (S)-2-acetamido-5-amino-N-(1-amino-2-methyl-1-oxopropan-2-yl)pentanamide] (Ac-[Orn]-[Aib]-NH2)
Log D
  logD: 1
Solubility
  Solubility: 4.5 µM (≈ 1.16 µg/mL)
[1]; [10]
  inhibition at 50 pM: 100%
[1]; read-out: Primary Assay (% Inhibition at 50 pM)
  inhibition at 50 pM: 79%
[6]
  half-life: 2.84 h
[7]
  Tmax: 0.5 h
  bioavailability: 5%
[7]; iv
  half-life: 1.9 h
[2]; [11]
  % Inhibition: 65%
  Conc. of Active TGF-β (pM): 2.3 pM
[2]; [12]
  % Inhibition: 79%
  Conc. of Active TGF-β (pM): 0.81 pM
[2]; [13]
  % Inhibition: 80%
  Conc. of Active TGF-β (pM): 0.78 pM
[2]; Homo sapiens, read-out: Secondary Assay: % Inhibition at 300 nM
  inhibition at 0.3 µM: 92%
[8]
  half-life: 5 h

## CC(=O)N[C@@H](CCCN)C(=O)NC1(C(N)=O)CCCC1 [Compound 13, (S)-1-(2-Acetamido-5-aminopentanamido)cyclopentanecarboxamide] (Ac-[Orn]-[Ac5c]-NH2)
[1]; [10]
  inhibition at 50 pM: 35%

## CC(=O)N[C@@H](CC(C)C)C(=O)N[C@@H](CCCN)C(N)=O [Compound 61, (S)-2-acetamido-N—((S)-1,5-diamino-1-oxopentan-2-yl)-4-methylpentanamide] (Ac-Leu-[Orn]-NH2)
[1]; ELISA-based assay
  % Inhibition at 50 pM: 63% and 99%

## Thrombospondin 1 [TSP1]
MSCs
  osteoblast differentiation by MSCs (alkaline phosphatase staining, Runx2 expression): Decrease Osteoblast Differentiation
CAG MM cells
  TGF-β activity in CAG MM cells (phospho-Smad 2): Induces TGF-B Activity

## CCCC(=O)N[C@@H](CCCN)C(=O)N[C@@H](CC(C)C)C(N)=O [Compound 63, (S)-5-amino-N—((S)-1-amino-4-methyl-1-oxopentan-2-yl)-2-butyramidopentanamide] (Butyryl-[Orn]-Leu-NH2)
[1]; ELISA-based assay
  % Inhibition at 50 pM: 59% and 85%
[2]; [11]
  % Inhibition: 67%
  Conc. of Active TGF-β (pM): 2.2 pM
[2]; [12]
  % Inhibition: 82%
  Conc. of Active TGF-β (pM): 0.7 pM
[2]; [13]
  % Inhibition: 100%
  Conc. of Active TGF-β (pM): 0 pM

## SLLK
[9]
  latent TGF-β activation by TSP1 in vitro (TGF-β1 activity vs TSP1+latent TGF-β): not significant
